Measurements: paper PMC12203311, “Design, synthesis, in silico and in vitro evaluation of pyrrole–indole hybrids as dual tubulin and aromatase inhibitors with potent anticancer activities” (RSC Advances, 2025)

Columns and labels:
SF-268 = assay: NCI60 five-dose screen; type: cell-based; conditions: Homo sapiens, SF-268, CNS cancer
OVCAR-3 = assay: NCI60 five-dose screen; type: cell-based; conditions: Homo sapiens, OVCAR-3, ovarian cancer
786-0 = assay: NCI60 five-dose screen; type: cell-based; conditions: Homo sapiens, 786-0, renal cancer
IGROV1 = assay: NCI60 five-dose screen; type: cell-based; conditions: Homo sapiens, IGROV-1; IGROV1, ovarian cancer
LOX IMVI = assay: NCI60 five-dose screen; type: cell-based; conditions: Homo sapiens, melanoma
ACHN = assay: NCI60 five-dose screen; type: cell-based; conditions: Homo sapiens, renal cancer
UACC-62 = assay: NCI60 five-dose screen; type: cell-based; conditions: Homo sapiens, UACC-62, melanoma
COLO 205 = assay: NCI60 five-dose screen; type: cell-based, human; conditions: Homo sapiens
RPMI-8226 = assay: NCI60 five-dose screen; type: cell-based; conditions: Homo sapiens, RPMI-8226, leukemia
[1] = system: L929 normal mouse fibroblast cell line; assay: Cytotoxicity MTT assay, L929; type: cell-based; conditions: 50 µM single concentration
Procedure: (§1) T47D (ATCC HTB-133) was purchased from Biomedia (Thailand) Co., LTD. L929 (ATCC CCL-1) was received as a gift from Prof. Tanapat Palaga, Department of Microbiology, Faculty of Science, Chulalongkorn University, Bangkok, Thailand. The cells were cultured in Dulbecco's Modified Eagle's Medium (DMEM; Gibco) supplemented with 10% fetal bovine serum (FBS; HyClone), 100 U mL^−1 penicillin and 100 µg mL^−1 streptomycin (Gibco) at 37 °C with 5% CO2.
(§2) The antiproliferative activity was determined by MTT assay. Briefly, the cells were plated into a 96-well microplate at the density of 10 000 cells per well. The cells were allowed to grow overnight before treated with the solutions of compounds in culture medium at the designated concentrations for 48 hours. The medium was then replaced with MTT solution (0.5 mg mL^−1 MTT in culture medium) and incubated for 3 hours. A 100 µL of DMSO was used to dissolve the produced formazan. Absorbance at 570 nm was then measured using a microplate reader (Varioskan™ LUX multimode microplate reader, Thermo Scientific™). Percent viability was calculated relative to the vehicle control (DMSO).

SK-MEL-2 = assay: NCI60 five-dose screen; type: cell-based; conditions: Homo sapiens, SK-MEL-2, melanoma
CCRF-CEM = assay: NCI60 five-dose screen; type: cell-based; conditions: Homo sapiens, leukemia
TK-10 = assay: NCI60 five-dose screen; type: cell-based; conditions: Homo sapiens, TK-10, renal cancer
CAKI-1 = assay: NCI60 five-dose screen; type: cell-based; conditions: Homo sapiens, CAKI-1, renal cancer
HOP-62 = assay: NCI60 five-dose screen; type: cell-based; conditions: Homo sapiens, HOP-62, NSC lung cancer
MDA-MB-468 = assay: NCI60 five-dose screen; type: cell-based; conditions: Homo sapiens, MDA-MB-468, breast cancer
UO-31 = assay: NCI60 five-dose screen; type: cell-based; conditions: Homo sapiens, UO-31, renal cancer
A498 = assay: NCI60 five-dose screen; type: cell-based; conditions: Homo sapiens, A498, renal cancer
OVCAR-5 = assay: NCI60 five-dose screen; type: cell-based; conditions: Homo sapiens, OVCAR-5, ovarian cancer
SK-MEL-5 = assay: NCI60 five-dose screen; type: cell-based, human; conditions: Homo sapiens
HOP-92 = assay: NCI60 five-dose screen; type: cell-based; conditions: Homo sapiens, HOP-92, NSC lung cancer
SNB-75 = assay: NCI60 five-dose screen; type: cell-based; conditions: Homo sapiens, SNB-75, CNS cancer
PC-3 = assay: NCI60 five-dose screen; type: cell-based; conditions: Homo sapiens, PC-3, prostate cancer
U251 = assay: NCI60 five-dose screen; type: cell-based; conditions: Homo sapiens, U-251, U251, CNS cancer
BT-549 = assay: NCI60 five-dose screen; type: cell-based; conditions: Homo sapiens, BT-549, breast cancer
HT29 = assay: NCI60 five-dose screen; type: cell-based; conditions: Homo sapiens, HT-29, HT29, colon cancer
SK-MEL-28 = assay: NCI60 five-dose screen; type: cell-based; conditions: Homo sapiens, SK-MEL-28, melanoma
HCT-116 = assay: NCI60 five-dose screen; type: cell-based; conditions: Homo sapiens, HCT-116, colon cancer
[2] = system: T47D breast cancer cell line; assay: Cytotoxicity MTT assay, T47D; type: cell-based, human; conditions: Homo sapiens, T47D; MTT, 48 hours
Procedure: as §1, §2

SN12C = assay: NCI60 five-dose screen; type: cell-based; conditions: Homo sapiens, renal cancer
[3] = read-out: LC50 (the source's name)

Work on `Cn1cccc1/C=N/NC(=O)c1[nH]c2ccc(Br)cc2c1-c1ccccc1` [Derivative 3d, (E)-5-Bromo-N′-((1-methyl-1H-pyrrol-2-yl)methylene)-3-phenyl-1H-indole-2-carbohydrazide] yielded a GI50 (SF-268) of 547 nM, a CC50 (SF-268; [3]) of over 100000 nM and a GI50 (OVCAR-3) of 246 nM. It also gave a CC50 (OVCAR-3; [3]) of over 100000 nM, a GI50 (786-0) of 29400 nM and a CC50 (786-0; [3]) of over 100000 nM. For the same molecule, the GI50 (IGROV1) was 621 nM, the GI50 (LOX IMVI) was 494 nM and the CC50 (LOX IMVI; [3]) was over 100000 nM. It also gave a GI50 (ACHN) of 175 nM, a CC50 (ACHN; [3]) of over 100000 nM and a GI50 (UACC-62) of 283 nM. It also gave a CC50 (UACC-62; [3]) of over 100000 nM, a CC50 (COLO 205; COLO 205, COLO 205, colon cancer, read-out: LC50 (the source's name)) of over 100000 nM and a GI50 (COLO 205; COLO 205, colon cancer) of 366 nM. For the same molecule, the GI50 (RPMI-8226) was 610 nM, the CC50 (RPMI-8226; [3]) was over 100000 nM and the L929 cell survival [1] was over 80%. The “L929 toxicity at single concentration” value [1] was “— ^c (No toxicity observed at 50 µM single concentration (>80% cell survival).)”, the GI50 (SK-MEL-2) was 366 nM and the CC50 (SK-MEL-2; [3]) was over 100000 nM. For the same molecule, the GI50 (CCRF-CEM) was 429 nM, the CC50 (CCRF-CEM; [3]) was over 100000 nM and the GI50 (TK-10) was 1010 nM. The CC50 (TK-10; [3]) was over 100000 nM, the GI50 (CAKI-1) was 255 nM and the CC50 (CAKI-1; [3]) was over 100000 nM. It also gave a GI50 (HOP-62) of 570 nM, a CC50 (HOP-62; [3]) of over 100000 nM and a GI50 (MDA-MB-468) of 155 nM. For the same molecule, the CC50 (MDA-MB-468; [3]) was over 100000 nM, the GI50 (UO-31) was 330 nM and the CC50 (UO-31; [3]) was over 100000 nM. It also gave a GI50 (A498) of over 100000 nM, a CC50 (A498; [3]) of over 100000 nM and a GI50 (OVCAR-5) of 472 nM. It also gave a CC50 (OVCAR-5; [3]) of over 100000 nM, a CC50 (SK-MEL-5; SK-MEL-5, SK-MEL-5, melanoma, read-out: LC50 (the source's name)) of over 100000 nM and a GI50 (SK-MEL-5; SK-MEL-5, melanoma) of 196 nM. For the same molecule, the GI50 (HOP-92) was 429 nM, the CC50 (HOP-92; [3]) was over 100000 nM and the GI50 (SNB-75) was 259 nM. For the same molecule, the CC50 (SNB-75; [3]) was over 100000 nM, the GI50 (PC-3) was 564 nM and the CC50 (PC-3; [3]) was over 100000 nM. The GI50 (U251) was 477 nM, the CC50 (U251; [3]) was over 100000 nM and the GI50 (BT-549) was 2810 nM. For the same molecule, the CC50 (BT-549; [3]) was over 100000 nM, the GI50 (HT29) was 327 nM and the CC50 (HT29; [3]) was over 100000 nM. It also gave a GI50 (SK-MEL-28) of 4700 nM, a CC50 (SK-MEL-28; [3]) of over 100000 nM and a GI50 (HCT-116) of 427 nM. It also gave a CC50 (HCT-116; [3]) of over 100000 nM, an IC50 [2] of 1000 ± 400 nM and a GI50 (SN12C) of 497 nM. It also gave a CC50 (SN12C; [3]) of over 100000 nM.
